The results in this text go back to ChEMBL document CHEMBL1134375, “Synthesis of 2-amino-5-sulfanyl-1,3,4-thiadiazole derivatives and evaluation of their antidepressant and anxiolytic activity” (2001).

A short description of test [1]: Maximum percentage decrease in immobility time was determined by despair test at a dose of 0.1 mg/kg in Male albino Swiss mice. It counts as functional, Mus musculus.
A short description of test [2]: Maximum percentage decrease in immobility time was determined by despair test at a dose of 0.3 mg/kg in Male albino Swiss mice. Type of test: functional, Mus musculus.
Test [3] can be described thus: Maximum percentage decrease in immobility time was determined by despair test at a dose of 0.5 mg/kg in Male albino Swiss mice. It counts as functional, Mus musculus.
Test [4] is filed under the species Mus musculus. The test can be described thus: Maximum percentage decrease in immobility time was determined by despair test in Male albino Swiss mice; NE=no effect. Type of test: functional.
Test [5] relates to Rattus norvegicus. The test is described as follows: Amnesia inducing potential (S2 latency) was determined by passive avoidance test in rat at 1 mg/kg dose. Type of test: functional.
Test [6] is described as follows: Percentage decrease in motor activity after intraperitoneal administration of a dose of 500 mg/kg in Male albino Swiss mice. It counts as functional, Mus musculus.
A short description of test [7]: Percentage decrease in motor activity after intraperitoneal administration of a dose of 300 mg/kg in Male albino Swiss mice. Type of test: functional, Mus musculus.
Test [8] relates to Mus musculus. The test is described as follows: Ethanol potentiation in mice (intraperitoneal administration). Particulars: ip.
Test [9] concerns Rattus norvegicus. The test can be described thus: Amnesia inducing potential (S2 latency) was determined by passive avoidance test in ratin rat at 0 mg/kg dose. Type of test: functional.
Test [10] deals with Rattus norvegicus. The test is described as follows: Amnesia inducing potential (S2 latency) was determined by passive avoidance test in rat at 0.5 mg/kg dose. It counts as functional.
For test [11], the system named is Rattus norvegicus. The test is described as follows: Amnesia inducing potential (S1 latency) was determined by passive avoidance test in rat 0.5 mg/kg dose. It counts as functional.
Test [12] is described as follows: Maximum percentage decrease in immobility time was determined by despair test at a dose of 10 mg/kg in Male albino Swiss mice. It counts as functional, Mus musculus.
Test [13] deals with Rattus norvegicus. The test is described as follows: Amnesia inducing potential (S1 latency) was determined by passive avoidance test in ratat 1 mg/kg dose. Type of test: functional.
Test [14] concerns Rattus norvegicus. The test is described as follows: Amnesia inducing potential (S2 latency) was determined by passive avoidance test in rat at 2 mg/kg dose. It counts as functional.
Test [15] in a line: Percentage decrease in motor activity after intraperitoneal administration of a dose of 600 mg/kg in Male albino Swiss mice. It counts as functional, Mus musculus.
The nature of test [16]: Percentage decrease in motor activity after intraperitoneal administration of a dose of 400 mg/kg in Male albino Swiss mice. Type of test: functional, Mus musculus.
Test [17] deals with Rattus norvegicus. The test can be described thus: Amnesia inducing potential (S1 latency) was determined by passive avoidance test in rat at 2 mg/kg dose. Type of test: functional.
Test [18] concerns Rattus norvegicus. The test can be described thus: Amnesia inducing potential (S1 latency) was determined by passive avoidance test in rat at 0 mg/kg dose. Type of test: functional.
The subject of test [19] is Mus musculus. The test can be described thus: Effective dose determined by rotarod test in mice (intraperitoneal administration). Particulars: ip. (In general: In the rotarod test animals must keep their balance on a rotating rod.)
Test [20] concerns Rattus norvegicus. The test is described as follows: Percentage decrease in immobility time, after subchronic administration (intraperitoneally) in rat dosed at 20 mg/kg. Type of test: functional. Particulars: route intraperitoneal.
Test [21] relates to Rattus norvegicus. The test is described as follows: Percentage decrease in immobility time, after acute administration (intraperitoneally) in rat dosed at 20 mg/kg. Type of test: functional. Particulars: route intraperitoneal.
The species named for test [22] is Mus musculus. The test is described as follows: Maximum percentage decrease in immobility time in mice, determined by despair test; NE=no effect. It counts as functional.
Test [23] can be described thus: Maximum percentage decrease in immobility time was determined by despair test at a dose of 50 mg/kg in Male albino Swiss mice. Type of test: functional, Mus musculus.
The nature of test [24]: Maximum percentage decrease in immobility time was determined by despair test at a dose of 0.25 mg/kg in Male albino Swiss mice. It counts as functional, Mus musculus.
Test [25] is described as follows: Maximum percentage decrease in immobility time was determined by despair test at a dose of 1 mg/kg in Male albino Swiss mice. It counts as functional, Mus musculus.
The test system of test [26] is Rattus norvegicus. The test is described as follows: Maximum percentage decrease in immobility time was determined after acute intraperitoneal administration of a dose of 20 mg/kg in rat. It counts as functional.
Test [27] concerns Rattus norvegicus. The test can be described thus: Maximum percentage decrease in immobility time was determined after acute intraperitoneal administration of a dose of 5 mg/kg in rat. It counts as functional.
Test [28] concerns Rattus norvegicus. The test can be described thus: Maximum percentage decrease in immobility time was determined after acute intraperitoneal administration of a dose of 10 mg/kg in rat. It counts as functional.
In test [29] the test system is Rattus norvegicus. The test is described as follows: Maximum percentage decrease in immobility time was determined after subchronic administration of a dose of 5 mg/kg in rat. Type of test: functional.
Test [30] relates to Rattus norvegicus. The test can be described thus: Maximum percentage decrease in immobility time was determined after subchronic administration of a dose of 1.25 mg/kg in rat. Type of test: functional.
Test [31] concerns Rattus norvegicus. The test is described as follows: Maximum percentage decrease in immobility time was determined after subchronic administration of a dose of 2.5 mg/kg in rat. Type of test: functional.
The nature of test [32]: Maximum percentage decrease in immobility time was determined by despair test at a dose of 5 mg/kg in Male albino Swiss mice. It counts as functional, Mus musculus.
The nature of test [33]: Maximum percentage decrease in immobility time was determined by despair test at a dose of 0.06 mg/kg in Male albino Swiss mice. Type of test: functional, Mus musculus.

The structures appear in SMILES notation. Activity calls are given as the source filed them. The rule behind the calls is not given here. Bounds are passed on as bounds.

Regarding `COc1cc(CSc2nnc(NC(C)=O)s2)cc(OC)c1OC`, the Decrease in test [1] is recorded as 14%.

`COc1ccc(CSc2nnc(N)s2)cc1` displayed a Decrease in [2] of 16%.

In the case of `COc1ccc(CSc2nnc(NC(C)=O)s2)cc1`, the Decrease in [3] worked out at 10%.

For the molecule `CCCCCCC(=O)Nc1nnc(SCc2ccccc2)s1`, in test [4], the “Maximum percentage decrease in immobility time” value (from here on “Maximum percentage decrease”) is “inactive”.

The term ED50 denotes the dose at which the effect has come halfway, by size or by number of responders. As to `COc1cccc(CSc2nnc(N)s2)c1`, the Activity in [5] is recorded as 135; in [9] it was 166; in [10] it was 146; in [11] it was 4.7; in [13], 5.6; in test [14], 180. Besides, the Activity is 7.2 in test [17] and 5.6 in test [18]. The Decrease in test [6] was under 46%; in test [7], 19%; in test [12], 21%; in [15], under 68%; in test [16], under 26%. Moreover, the ED50 in test [8] came out at 162 mg/kg; in test [19] it was 534 mg/kg.

For `O=C(Nc1nnc(SCc2ccccc2)s1)c1ccccc1`, in test [4], the “Maximum percentage decrease” value was “inactive”.

For the molecule `CN(C)CCCN1c2ccccc2CCc2ccccc21` [IMIPRAMINE], the Decrease in test [20] is under 56%; in test [21], under 45%.

Consider `CCCSc1nnc(N)s1`, for which the NE result in [22] was “inactive”.

`CCC(=O)Nc1nnc(SCc2ccccc2)s1`: the “Maximum percentage decrease” value in test [4] was “inactive”.

In the case of `CSc1nnc(N)s1`, the Decrease in [23] was 23%.

`CC(=O)Nc1nnc(SCc2ccc([N+](=O)[O-])cc2)s1` returned a Decrease in [24] of 16%.

In the case of `CC(=O)Nc1nnc(SCc2cccc(Cl)c2)s1`, the “Maximum percentage decrease” value in [4] is “inactive”.

For `CC(=O)Nc1nnc(SCc2cccc([N+](=O)[O-])c2)s1`, the “Maximum percentage decrease” value in [4] is “inactive”.

For `Nc1nnc(SCc2cccc(Cl)c2)s1`, the “Maximum percentage decrease” value in test [4] was “inactive”.

`Cc1ccc(CSc2nnc(N)s2)cc1`: the “Maximum percentage decrease” value in test [4] was “inactive”.

Consider `CC(=O)Nc1nnc(SC(C)C)s1`, for which the Decrease in [25] is reported as 19%.

For the molecule `CC(=O)Nc1nnc(SCc2ccc(Cl)cc2)s1`, the “Maximum percentage decrease” value in test [4] was “inactive”.

`CC(C)Sc1nnc(N)s1` displayed a Decrease in test [12] of 17%.

`Nc1nnc(SCc2ccccc2)s1`: the Decrease is on record as under 24% in test [26]; 35% in [12]; under 33% in [27]; 10% in test [28]; under 28% in [29]; under 23% in test [30]. The Decrease in [31] is listed as under 31%.

Regarding `Nc1nnc(SCc2ccc([N+](=O)[O-])cc2)s1`, the NE result in [22] was “inactive”.

For `Nc1nnc(SCc2ccc(Cl)cc2)s1`, the Decrease in test [1] came to 15%.

On to `CSc1nnc(N(C)C(C)=O)s1`, for which the “Maximum percentage decrease” value in test [4] was “inactive”.

`Cc1cccc(CSc2nnc(N)s2)c1`: the Decrease in test [32] is listed as 17%.

`CC(=O)Nc1nnc(SCc2ccc(C)cc2)s1`: in test [4], the “Maximum percentage decrease” value is “inactive”.

In the case of `COc1cc(CSc2nnc(N)s2)cc(OC)c1OC`, the “Maximum percentage decrease” value in test [4] was “inactive”.

`CC(=O)N(C)c1nnc(SC(C)C)s1` came in with a Decrease in test [24] of 17%.

As for `Nc1nnc(SCc2cccc([N+](=O)[O-])c2)s1`, the “Maximum percentage decrease” value in test [4] is “inactive”.

Take `COc1cccc(CSc2nnc(NC(C)=O)s2)c1`: in [4], the “Maximum percentage decrease” value was “inactive”.

`CC(=O)Nc1nnc(SCc2ccccc2)s1` registered a Decrease in test [33] of 22%.
